# “And” between values parts separate entries of the source, which are not always exact repeats. Equal values may be shown once.
# Test system: CCL2
# Assay: Glycan array analysis of CCL2 (CFG mammalian glycan array V3.1)
# Assay type: binding, Coprinopsis cinerea
# Settings: Alexa Fluor 488 labeled CCL2 200 µg/ml, array V3.1, average of triplicates
# Experimental: (§1) Purified CCL1 and CCL2 were fluorescently labeled with Alexa Fluor 488 (Invitrogen) according to the manufacturer's protocol and used (at a final concentration of 200 µg/ml) to probe versions 4.2 and 3.1, respectively, of the mammalian glycan array offered by Core H of the Consortium for Functional Glycomics (CFG).
row,Molecule,RFU (relative fluorescence units)
1,9NAcNeu5Ac2-6Gal1-4GlcNAc-Sp8,239.4 RFU
2,9NAcNeu5Ac-Sp8,8595.4 RFU
3,NCCCO[C@H]1O[C@H](CO)[C@@H](O)[C@H](O)[C@@H]1O [-D-Man–Sp8],152.9 RFU and 130.5 RFU
4,"NCCCO[C@@H]1O[C@H](CO)[C@@H](O)[C@H](O)[C@H]1NC(=O)CO [-GlcN(Gc)-Sp8, -GlcN(Gc)- Sp8]",136.2 RFU
5,CC(=O)N[C@H]1[C@H](OCCN)O[C@H](CO)[C@@H](O)[C@@H]1O [-GlcNAc–Sp0],172.7 RFU
6,C[C@@H]1O[C@@H](OCCCN)[C@@H](O)[C@H](O)[C@@H]1O [-L-Fuc–Sp8],416.6 RFU
7,C[C@@H]1O[C@@H](OCCCN)[C@H](O)[C@H](O)[C@H]1O [-L-Rha-Sp8],112.5 RFU

# Same assay, conditions: fluorescently labeled CCL2 200 µg/ml, array V3.1
row,Molecule,binding on glycan array (in words)
1,"CC(=O)N[C@H]1C(O)O[C@H](CO)[C@@H](O)[C@@H]1O[C@@H]1O[C@@H](C)[C@@H](O)[C@@H](O)[C@@H]1O (some centres unmarked) [Fucα1,3GlcNAc]",very low fluorescence
2,"CC(=O)N[C@H]1[C@H](O[C@H]2[C@H](O[C@@H]3O[C@@H](C)[C@@H](O)[C@@H](O)[C@@H]3O)[C@@H](NC(C)=O)C(O)O[C@@H]2CO)O[C@H](CO)[C@H](O)[C@@H]1O (some centres unmarked) [fucosylated LacdiNAc, GalNAcβ1,4[Fucα1,3]GlcNAc]",binds

# Same assay, conditions: fluorescently labeled CCL2 200 µg/ml, array V3.1; listed as GalNAcβ1,4[Fucα1,3]GlcNAc
row,Molecule,binding on glycan array (in words)
1,"CC(=O)N[C@H]1[C@H](O[C@H]2[C@H](O[C@@H]3O[C@@H](C)[C@@H](O)[C@@H](O)[C@@H]3O)[C@@H](NC(C)=O)C(O)O[C@@H]2CO)O[C@H](CO)[C@H](O)[C@@H]1O (some centres unmarked) [fucosylated LacdiNAc, GalNAcβ1,4[Fucα1,3]GlcNAc]",one of the best binders

# Test system: CCL1
# Assay: Glycan array analysis of CCL1 (CFG mammalian glycan array V4.2)
# Assay type: binding, Coprinopsis cinerea
# Settings: Alexa Fluor 488 labeled CCL1 200 µg/ml, array V4.2, average of triplicates
# Experimental: as §1
row,Molecule,RFU (relative fluorescence units)
1,C[C@@H]1O[C@@H](OCCCN)[C@@H](O)[C@H](O)[C@@H]1O [Fuc-Sp8],26 RFU
2,NCCCO[C@@H]1O[C@H](CO)[C@@H](O)[C@H](O)[C@H]1NC(=O)CO [GlcN(Gc)-Sp8],32 RFU
3,CC(=O)N[C@H]1[C@H](OCCN)O[C@H](CO)[C@@H](O)[C@@H]1O [GlcNAc-Sp0],6 RFU
4,C[C@@H]1O[C@@H](OCCCN)[C@H](O)[C@H](O)[C@H]1O [Rha-Sp8],46 RFU
5,Fuc1-2Gal1-3(Fuc1-4)GlcNAc-Sp8,80 RFU
6,Fuc1-2Gal1-3GalNAc1-3Gal1-4Gal1-4Glc-Sp9,76 RFU
7,Fuc1-2Gal1-3GalNAc1-3Gal-Sp9,129 RFU
8,Fuc1-2Gal1-3GalNAc1-4(Neu5Ac2-3)Gal1-4Glc-Sp0,5 RFU
9,Fuc1-2Gal1-3GalNAc1-4(Neu5Ac2-3)Gal1-4Glc-Sp9,20 RFU
10,Fuc1-2Gal1-3GalNAc-Sp8,70 RFU
11,Fuc1-2Gal1-3GalNAc-Sp14,25 RFU
12,Fuc1-2Gal1-3GlcNAc1-3Gal1-4Glc-Sp8,1 RFU
13,Fuc1-2Gal1-3GlcNAc1-3Gal1-4Glc-Sp10,20 RFU
14,Fuc1-2Gal1-3GlcNAc-Sp0,3 RFU
15,Fuc1-2Gal1-3GlcNAc-Sp8,18 RFU
16,Fuc1-2Gal1-4(Fuc1-3)GlcNAc1-3Gal1-4(Fuc1-3)GlcNAc1-3Gal1-4(Fuc1-3)GlcNAc-Sp0,1835 RFU
17,Fuc1-2Gal1-4(Fuc1-3)GlcNAc1-3Gal1-4(Fuc1-3)GlcNAc-Sp0,54 RFU
18,Fuc1-2Gal1-4(Fuc1-3)GlcNAc-Sp0,10 RFU
19,Fuc1-2Gal1-4(Fuc1-3)GlcNAc-Sp8,29 RFU
20,Fuc1-2Gal1-4Glc-Sp0,47 RFU
21,Fuc1-2Gal1-4GlcNAc1-3Gal1-4GlcNAc1-3Gal1-4GlcNAc-Sp0,61 RFU
22,Fuc1-2Gal1-4GlcNAc1-3Gal1-4GlcNAc-Sp0,15 RFU
23,Fuc1-2Gal1-4GlcNAc-Sp0,52 RFU
24,Fuc1-2Gal1-4GlcNAc-Sp8,45 RFU
25,Fuc1-2Gal-Sp8,12 RFU
26,Fuc1-3GlcNAc-Sp8,30 RFU and 54 RFU
27,Fuc1-4GlcNAc-Sp8,62 RFU

row,Molecule,RFU (relative fluorescence units)
1,Fuc-Sp9,-10 RFU
2,Gal1-2Gal-Sp8,71 RFU
3,Gal1-3(Fuc1-2)Gal1-3GlcNAc-Sp0,61 RFU
4,Gal1-3(Fuc1-2)Gal1-3GlcNAc-Sp8,31 RFU
5,Gal1-3(Fuc1-2)Gal1-4(Fuc1-3)GlcNAc-Sp0,46 RFU
6,Gal1-3(Fuc1-2)Gal1-4(Fuc1-3)GlcNAc-Sp8,35 RFU
7,Gal1-3(Fuc1-2)Gal1-4GlcNAc-Sp0,41 RFU
8,Gal1-4GlcNAc1-2Man1-3(Gal1-4GlcNAc1-2Man1-6)Man1-4GlcNAc1-4GlcNAc-Sp12,121 RFU
9,Gal1-4GlcNAc1-3(Gal1-4GlcNAc1-6)GalNAc-Sp8,24 RFU
10,Gal-Sp8,99 RFU and 68 RFU
11,GalNAc1-3(Fuc1-2)Gal1-3GlcNAc-Sp0,100 RFU
12,GalNAc1-3(Fuc1-2)Gal1-4(Fuc1-3)GlcNAc-Sp0,75 RFU
13,GalNAc1-3(Fuc1-2)Gal1-4Glc-Sp0,2 RFU
14,GalNAc1-3(Fuc1-2)Gal1-4GlcNAc-Sp0,82 RFU
15,GalNAc1-3(Fuc1-2)Gal1-4GlcNAc-Sp8,25 RFU
16,GalNAc1-3(Fuc1-2)Gal-Sp8,7 RFU and 8 RFU
17,GalNAc1-3(Fuc1-2)Gal-Sp18,19 RFU
18,GalNAc1-3Gal1-4Gal1-4GlcNAc-Sp0,18 RFU
19,GalNAc1-3Gal-Sp8,8 RFU
20,GalNAc1-3GalNAc-Sp8,7 RFU and 14 RFU
21,GalNAc1-4(Fuc1-2)Gal1-4GlcNAc-Sp8,13 RFU
22,GalNAc1-4(Fuc1-3)GlcNAc-Sp0,7887 RFU
23,GalNAc1-4GlcNAc-Sp0,-11 RFU
24,GalNAc1-4GlcNAc-Sp8,3 RFU
25,GalNAc-Sp15,148 RFU
26,GlcNAc1-2Man1-3(GlcNAc1-2Man1-6)Man1-4GlcNAc1-4GlcNAc-Sp12,90 RFU
27,GlcNAc1-3Gal1-3GalNAc-Sp8,11 RFU

row,Molecule,RFU (relative fluorescence units)
1,GlcNAc-Sp8,4 RFU
2,Man1-3(Man1-6)Man1-4GlcNAc1-4GlcNAc-Sp12,84 RFU
3,Neu5Ac2-3[6OSO3]Gal1-4GlcNAc-Sp8,3479 RFU
4,Neu5Ac2-6Gal1-4GlcNAc1-2Man1-3(Neu5Ac2-6Gal1-4GlcNAc1-2Man1-6)Man1-4GlcNAc1-4GlcNAc-N(LT)AVL,78 RFU
5,Neu5Ac2-6Gal1-4GlcNAc1-2Man1-3(Neu5Ac2-6Gal1-4GlcNAc1-2Man1-6)Man1-4GlcNAc1-4GlcNAc-Sp13,86 RFU
6,Neu5Ac-Sp8,113 RFU and 98 RFU
7,Neu5Ac-Sp11,247 RFU
8,[3OSO3]Gal1-3(Fuc1-4)GlcNAc-Sp8,89 RFU
9,[3OSO3]Gal1-3GlcNAc-Sp0,93 RFU
10,[3OSO3]Gal1-3GlcNAc-Sp8,173 RFU
11,[3OSO3]Gal1-4(Fuc1-3)Glc-Sp0,140 RFU
12,[3OSO3]Gal1-4(Fuc1-3)GlcNAc-Sp0,383 RFU
13,[3OSO3]Gal1-4(Fuc1-3)GlcNAc-Sp8,407 RFU
14,[3OSO3]Gal1-4(Fuc1-3)[6OSO3]Glc-Sp0,250 RFU
15,[3OSO3]Gal1-4GlcNAc-Sp0,141 RFU
16,[3OSO3]Gal1-4[6OSO3]Glc-Sp0,329 RFU
17,[3OSO3]Gal1-4[6OSO3]Glc-Sp8,228 RFU
18,[3OSO3]Gal1-4[6OSO3]GlcNAc-Sp0,293 RFU
19,[3OSO3]Gal-Sp8,42 RFU
20,[6OSO3]Gal1-4Glc-Sp0,23 RFU
21,[6OSO3]Gal1-4Glc-Sp8,9 RFU
22,[6OSO3]Gal1-4GlcNAc-Sp8,27 RFU
23,[6OSO3]GlcNAc-Sp8,14 RFU
24,[9NAc]Neu5Ac2-6Gal1-4GlcNAc-Sp8,6 RFU
25,[9NAc]Neu5Ac-Sp8,27 RFU

# — article PMC3355094 (PLoS Pathogens, 2012)
